Measured values published in ChEMBL document CHEMBL3864152, “Discovery of ursolic acid prodrug (NX-201): Pharmacokinetics and in vivo antitumor effects in PANC-1 pancreatic cancer” (Bioorg Med Chem Lett, 2016).
One block for each compound: values may come before it. The source made the active and inactive calls. The calls are words filed in the database; no cut-off is given here.

Tests used:
[1] = Tmax in rat at 25 mg/kg, po; format: ADME, organism-based; conditions: in vivo
[2] = Cmax in rat at 25 mg/kg, po; format: ADME, organism-based; design: dose 25 mg/kg, route oral; conditions: in vivo
[3] = AUC in rat at 25 mg/kg, po; format: ADME, organism-based; conditions: in vivo
[4] = Half life in rat at 25 mg/kg, po; format: ADME, organism-based; conditions: in vivo
[5] = Oral bioavailability in rat at 25 mg/kg; format: ADME, organism-based; conditions: in vivo
PANC-1 [6] = assay: Antitumor activity against human PANC1 cells xenografted in po dosed non-obese diabetic […] SCID mouse assessed as tumor growth inhibition administered daily for 4 weeks; format: functional, organism-based
PANC-1 [7] = assay: Antitumor activity against human PANC1 cells xenografted in non-obese diabetic […] SCID mouse assessed as tumor growth inhibition at 50 mg/kg, po administered daily measured after 3 weeks in presence of gemcitabine; format: functional, organism-based
Mus musculus [8] = assay: Toxicity in non-obese diabetic […] SCID mouse xenografted with human PANC1 cells assessed as change in body weight at 25 to 100 mg/kg, po administered daily for 4 weeks; format: organism-based, PANC-1; conditions: in vivo, 672 h
Mus musculus [9] = assay: Toxicity in non-obese diabetic […] SCID mouse xenografted with human PANC1 cells assessed as change in body weight at 50 mg/kg, po administered daily for 4 weeks in presence of gemcitabine; format: organism-based, PANC-1; conditions: in vivo, 672 h
PANC-1 [10] = assay: Antitumor activity against human PANC1 cells xenografted in non-obese diabetic […] SCID mouse assessed as tumor growth inhibition at 40 mg/kg, iv administered 2 times per week for 4 weeks; format: functional, organism-based
Mus musculus [11] = assay: Toxicity in non-obese diabetic […] SCID mouse xenografted with human PANC1 cells assessed as change in body weight at 40 mg/kg, iv administered 2 times per week for 4 weeks; format: organism-based, PANC-1; conditions: in vivo, 672 h
[12] = Oral bioavailability in Sprague-Dawley rat at 25 mg/kg; format: ADME, organism-based; conditions: in vivo
[13] = Dissociation constant, pKa of the compound; format: physicochemical
[14] = Tmax in rat at 0.5 mg/kg, iv; format: ADME, organism-based; conditions: in vivo
[15] = AUC in rat at 0.5 mg/kg, iv; format: ADME, organism-based; conditions: in vivo
[16] = Half life in rat at 0.5 mg/kg, iv; format: ADME, organism-based; conditions: in vivo
Mus musculus [17] = assay: Toxicity in non-obese diabetic […] SCID mouse xenografted with human PANC1 cells assessed as change in body weight at 50 mg/kg, po administered daily for 4 weeks; format: organism-based, PANC-1; conditions: in vivo, 672 h
in vivo = conditions: rat, iv, 0.5 mg/kg
Description: Cmax in rat at 0.5 mg/kg, iv

Tmax [1]: 87.6 min
Cmax [2]: 30.3 ng/mL
AUC [3]: 132 ng·h/mL
half-life [4]: 283 min
bioavailability [5]: 2.3%
Structure (SMILES): Cc1oc(=O)oc1COC(=O)[C@]12CC[C@@H](C)[C@H](C)[C@H]1C1=CC[C@@H]3[C@@]4(C)CC[C@H](O)C(C)(C)[C@@H]4CC[C@@]3(C)[C@]1(C)CC2
TGI (PANC-1 [6]): Dose-dependent effect
TGI (PANC-1 [7]): Active
Activity (Mus musculus [8]): Non-Toxic
Activity (Mus musculus [9]): Non-Toxic

Structure (SMILES): Nc1ccn([C@@H]2O[C@H](CO)[C@@H](O)C2(F)F)c(=O)n1 [GEMCITABINE]
TGI (PANC-1 [10]): Active
Activity (Mus musculus [11]): Non-Toxic

bioavailability [12]: 0.7%
Structure (SMILES): CC1(C)CC[C@]2(C(=O)O)CC[C@]3(C)C(=CC[C@@H]4[C@@]5(C)CC[C@H](O)C(C)(C)[C@@H]5CC[C@]43C)[C@@H]2C1 [OLEANOLIC_ACID]

pKa [13]: 5.29
Tmax [14]: 4.8 min
Tmax [1]: 15 min
Cmax [2]: 1.9 ng/mL
AUC [15]: 114 ng·h/mL
AUC [3]: 0.6 ng·h/mL
half-life [16]: 93 min
half-life [4]: 18 min
bioavailability [5]: < 0.01%
Cmax (in vivo): 378 ng/mL
Structure (SMILES): C[C@H]1[C@H](C)CC[C@]2(C(=O)O)CC[C@]3(C)C(=CC[C@@H]4[C@@]5(C)CC[C@H](O)C(C)(C)[C@@H]5CC[C@]43C)[C@H]12 [URSOLIC ACID]
Activity (Mus musculus [17]): Non-Toxic
